{"source": "patent US20220259235A1", "about": "“EGFR Inhibitor, Composition, and Preparation Method Therefor” (BETTA PHARMACEUTICALS CO., LTD, priority 2019, published 2022)", "key": {"Ba/F3-L858R/T790M/C797S": {"target": "Ba/F3-L858R/T790M/C797S (Homo sapiens, UniProt P00533, T790M/C797S/L858R, cells depend on it)", "sequence (P00533 whole entry T790M/C797S/L858R)": "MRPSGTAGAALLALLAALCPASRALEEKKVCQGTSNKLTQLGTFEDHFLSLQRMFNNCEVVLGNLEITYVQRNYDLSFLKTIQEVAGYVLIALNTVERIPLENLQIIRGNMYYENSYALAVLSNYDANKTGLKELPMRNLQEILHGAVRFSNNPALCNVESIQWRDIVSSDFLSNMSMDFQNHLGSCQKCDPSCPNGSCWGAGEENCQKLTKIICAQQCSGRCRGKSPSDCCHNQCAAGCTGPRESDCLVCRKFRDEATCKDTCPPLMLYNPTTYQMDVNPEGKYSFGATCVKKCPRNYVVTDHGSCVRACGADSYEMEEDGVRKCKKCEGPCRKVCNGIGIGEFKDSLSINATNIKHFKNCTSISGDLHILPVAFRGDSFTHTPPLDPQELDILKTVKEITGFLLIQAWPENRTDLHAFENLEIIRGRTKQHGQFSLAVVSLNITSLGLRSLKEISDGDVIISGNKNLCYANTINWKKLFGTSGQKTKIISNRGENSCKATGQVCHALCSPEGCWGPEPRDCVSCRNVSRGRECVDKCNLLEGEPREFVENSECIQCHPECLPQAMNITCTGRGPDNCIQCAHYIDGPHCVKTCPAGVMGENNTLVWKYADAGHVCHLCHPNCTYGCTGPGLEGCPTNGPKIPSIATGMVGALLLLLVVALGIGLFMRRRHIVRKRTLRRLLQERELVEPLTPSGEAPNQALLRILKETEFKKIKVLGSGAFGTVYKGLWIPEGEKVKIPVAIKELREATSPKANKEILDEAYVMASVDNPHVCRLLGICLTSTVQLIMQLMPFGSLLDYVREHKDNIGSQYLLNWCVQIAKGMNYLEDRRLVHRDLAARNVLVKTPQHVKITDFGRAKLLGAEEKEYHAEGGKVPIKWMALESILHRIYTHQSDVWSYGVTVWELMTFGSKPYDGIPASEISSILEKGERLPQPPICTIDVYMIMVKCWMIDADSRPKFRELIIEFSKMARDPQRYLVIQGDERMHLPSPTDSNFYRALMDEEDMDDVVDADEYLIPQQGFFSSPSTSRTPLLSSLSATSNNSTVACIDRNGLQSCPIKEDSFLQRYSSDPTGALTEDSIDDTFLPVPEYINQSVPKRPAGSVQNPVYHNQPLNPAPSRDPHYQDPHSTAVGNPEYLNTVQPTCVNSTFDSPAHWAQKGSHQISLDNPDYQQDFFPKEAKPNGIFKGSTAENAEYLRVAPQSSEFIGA", "assay": "Ba/F3-L858R/T790M/C797S cell proliferation assay (CellTiter Glo, 72 h)", "assay_type": "cell-based", "conditions": "CTG, numeric values, read-out: BaF3 L858R/T790M/C797S IC50", "in_short": "(§1)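 Cells seeded at 2000/well and exposed 72 h to compound at 1000 to 0.2 nM (0.1% DMSO). Viability read by CellTiter-Glo luminescence; IC50 from four-parameter nonlinear regression of signal vs. log concentration.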"}, "Ba/F3-Δ19del/T790M/C797S": {"target": "Ba/F3-Δ19del/T790M/C797S (Homo sapiens, UniProt P00533, T790M/C797S, cells depend on it, form not given)", "sequence (P00533 with tags, fused parts or gaps DEL746-750/T790M/C797S, form open)": "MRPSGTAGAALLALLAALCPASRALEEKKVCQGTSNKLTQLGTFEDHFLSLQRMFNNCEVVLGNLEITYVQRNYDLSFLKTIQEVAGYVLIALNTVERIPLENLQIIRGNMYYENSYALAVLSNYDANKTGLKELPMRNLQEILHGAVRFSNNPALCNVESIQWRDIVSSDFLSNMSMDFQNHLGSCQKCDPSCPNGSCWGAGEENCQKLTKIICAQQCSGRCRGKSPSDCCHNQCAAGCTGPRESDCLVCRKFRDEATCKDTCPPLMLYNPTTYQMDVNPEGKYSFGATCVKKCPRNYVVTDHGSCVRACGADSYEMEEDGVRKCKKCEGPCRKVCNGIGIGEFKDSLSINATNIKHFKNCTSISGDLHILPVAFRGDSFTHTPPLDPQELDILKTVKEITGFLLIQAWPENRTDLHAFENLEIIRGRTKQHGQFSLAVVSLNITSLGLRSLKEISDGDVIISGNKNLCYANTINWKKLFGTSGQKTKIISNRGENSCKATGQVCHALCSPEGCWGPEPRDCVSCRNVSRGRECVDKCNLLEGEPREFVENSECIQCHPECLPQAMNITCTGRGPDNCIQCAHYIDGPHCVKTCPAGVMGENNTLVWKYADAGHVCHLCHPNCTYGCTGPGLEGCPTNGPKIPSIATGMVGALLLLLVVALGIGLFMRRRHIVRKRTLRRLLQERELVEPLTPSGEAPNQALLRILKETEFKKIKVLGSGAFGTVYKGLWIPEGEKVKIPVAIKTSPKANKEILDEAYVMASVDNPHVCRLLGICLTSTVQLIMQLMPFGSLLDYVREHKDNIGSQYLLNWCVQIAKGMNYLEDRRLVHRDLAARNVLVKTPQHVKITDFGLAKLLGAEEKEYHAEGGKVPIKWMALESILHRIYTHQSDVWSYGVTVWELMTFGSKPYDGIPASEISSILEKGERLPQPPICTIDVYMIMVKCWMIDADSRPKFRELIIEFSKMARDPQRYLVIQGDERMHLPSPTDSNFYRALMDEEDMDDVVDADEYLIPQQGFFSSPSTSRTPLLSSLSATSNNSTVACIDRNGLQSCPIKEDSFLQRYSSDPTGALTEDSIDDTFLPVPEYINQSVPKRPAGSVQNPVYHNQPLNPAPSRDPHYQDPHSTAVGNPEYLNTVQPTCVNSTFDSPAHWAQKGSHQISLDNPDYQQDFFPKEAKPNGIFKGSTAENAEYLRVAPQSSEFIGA", "assay": "Ba/F3-Δ19del/T790M/C797S cell proliferation assay (CellTiter Glo, 72 h)", "assay_type": "cell-based", "conditions": "CTG, numeric values, read-out: BaF3 Δ19del/T790M/C797S IC50", "in_short": "as §1"}, "[1]": {"tested_on": "A431 EGFR wild-type cell line", "assay": "A431 EGFR wild-type cell proliferation assay (CellTiter Glo, 72 h)", "assay_type": "cell-based", "conditions": "Homo sapiens, A-431, CTG, read-out: A431 EGFR WT IC50", "in_short": "as §1"}, "[2]": {"assay": "Liver microsomal clearance test, human", "assay_type": "in vitro ADME", "conditions": "Human liver microsomes, 0.5 mg/mL, NADPH", "protocol": "(§2) Test 3 Liver Microsomal Clearance Test\n(§3) 1. Prepare 0.5 mg/mL liver microsome diluent containing K-butter and MgCl2:\n(§4) 2.1 Take 356 μL of the liver microsome diluent prepared above and add it to the preset wells of the incubation plate, the number of multiple wells n=1, mark it as the incubation plate.\n(§5) 2.2 Take 4 μL of the positive control compound Verapamil (50 μM) and the working solution of the test compound (200 μM) into the above incubation plate containing 356 μL of liver microsome diluent, and mix well (The dilution solvent from the stock solution to the working solution is a mixed solvent of acetonitrile: methanol: water=1:1:2, and the final concentration of DMSO is ≤0.5%),\n(§6) 2.3 Place the incubation plate in a 37° C. thermostatic oscillator (at shaking speed of 100 rpm) for pre-incubation with 10 min.\n(§7) 2.4 Add 40 μL of 10 mM NADPH (add 40 μL of K-buffer to the wells without NADPH) to each reaction well to start the reaction and start timing.\n(§8) 3. Sample collection and treatment:\n(§9) 3.1 After adding NADPH to start the reaction, immediately take out 50 μL of the sample and add it to the precipitation plate pre-added with 400 μL of stop solution, and shake on an oscillator at 600 rpm for 5 min at room temperature as a 0 min sample.\n(§10) 3.2 At the predetermined time points of 5 min, 15 min and 45 min, take out 50 μL of sample from the incubation plate and add it to the precipitation plate. The subsequent steps were the same as the treatment of 0 min sample. 3.3 After balancing, centrifuge above precipitation plate at 3200 rpm for 10 min at 4° C.\n(§11) 3.4 Take 50 μL of the supernatant after centrifugation and add it to pre-added 20% acetonitrile water at appropriate proportion, shake on an oscillator at 600 rpm for 2 min at room temperature, mix well, and put it into the LC-MS/MS sampler for sample injection.\n(§12) Analysis of Experimental Data\n1. […]"}, "[3]": {"assay": "Liver microsomal clearance test, monkey", "assay_type": "in vitro ADME", "conditions": "Monkey liver microsomes, 0.5 mg/mL, NADPH", "protocol": "as §2, §3, §4, §5, §6, §7, §8, §9, §10, §11, §12\n1. […]"}, "[4]": {"assay": "Liver microsomal clearance test, dog", "assay_type": "in vitro ADME", "conditions": "Dog liver microsomes, 0.5 mg/mL, NADPH", "protocol": "as §2, §3, §4, §5, §6, §7, §8, §9, §10, §11, §12\n1. […]"}, "[5]": {"assay": "Liver microsomal clearance test, rat", "assay_type": "in vitro ADME", "conditions": "Rat liver microsomes, 0.5 mg/mL, NADPH", "protocol": "as §2, §3, §4, §5, §6, §7, §8, §9, §10, §11, §12\n1. […]"}, "[6]": {"assay": "Liver microsomal clearance test, mice", "assay_type": "in vitro ADME", "conditions": "Mice liver microsomes, 0.5 mg/mL, NADPH", "protocol": "as §2, §3, §4, §5, §6, §7, §8, §9, §10, §11, §12\n1. […]"}}}
{"smiles": "COc1cc(N2CCC(N3CCN(C)CC3)CC2)c(-c2cnn(C)c2)cc1Nc1ncc(Cl)c(Nc2ccc3nccnc3c2P(C)(C)=O)n1", "note": "[Compound 1, (6-((5-Chloro-2-((2-methoxy-5-(1-methyl-1hydro-pyrazol-4-yl)-4-(4-(4-methylpiperazine-1-yl)piperidin-1-yl)phenyl)amino)pyrimidin-4-yl)amino)quinoxalin-5-yl)dimethylphosphine oxide]", "values": [{"measurement": "GI50", "setting": "Ba/F3-L858R/T790M/C797S", "result": 2.1, "unit": "nM"}, {"measurement": "GI50", "setting": "Ba/F3-Δ19del/T790M/C797S", "result": 2.1, "unit": "nM"}, {"measurement": "IC50", "setting": "[1]", "result": 112, "unit": "nM"}, {"measurement": "Instrinsic clearance of liver microsomal protein, CLint", "setting": "[2]", "result": 2.4, "unit": "μL/min/mg proteins"}, {"measurement": "Instrinsic clearance of liver microsomal protein, CLint", "setting": "[3]", "result": 38.8, "unit": "μL/min/mg proteins"}, {"measurement": "Instrinsic clearance of liver microsomal protein, CLint", "setting": "[4]", "result": 1, "unit": "μL/min/mg proteins"}, {"measurement": "Instrinsic clearance of liver microsomal protein, CLint", "setting": "[5]", "result": 4, "unit": "μL/min/mg proteins"}, {"measurement": "Instrinsic clearance of liver microsomal protein, CLint", "setting": "[6]", "result": 6.6, "unit": "μL/min/mg proteins"}]}
